Results published in patent US20260262643A1, “HERBICIDAL BENZOXAZINES” (FMC CORPORATION, priority 2022, published 2026).

Tests used:
[1] = tested on: barnyardgrass; test: Test C preemergence; type: in vivo, Echinochloa crusgalli; conditions: 0 to 100 scale (0 no effect, 100 complete control); for Plant response rating, Barnyardgrass: Preemergence, visual rating after 10 days
Description: (§1) Seeds of plant species selected from barnyardgrass (Echinochloa crusgalli), blackgrass (Alopecurus myosuroides), corn (Zea mays), foxtail, giant (giant foxtail, Setaria faberi), green foxtail (Setaria viridis), goosegrass (Eleusine indica), kochia (Bassia scoparia), oat, wild (wild oat, Avena fatua), pigweed, palmer (palmer amaranth, palmer pigweed, Amaranthus palmeri), Pigweed, Redroot (redroot pigweed, Amaranthus retroflexus), ragweed (common ragweed, Ambrosia artemisiifolia), ryegrass, Italian ([…] ryegrass, Lolium multiflorum), soybean (Glycine max), and wheat (Triticum aestivum) were planted into a blend of loam soil and sand and treated preemergence with a directed soil spray using test chemicals formulated in a non-phytotoxic solvent mixture which included a surfactant. At the same time, plants selected from these crops and weed species and also galium (catchweed bedstraw, Galium aparine) and horseweed (Erigeron canadensis) were planted in pots containing the same blend of loam soil and sand and treated with postemergence applications of test chemicals formulated in the same manner. Plants ranged in height from 2 to 10 cm and were in the one- to two-leaf stage for the postemergence treatment. Treated plants and untreated controls were maintained in a greenhouse for 10 days, after which time all treated plants were compared to untreated controls and visually evaluated for injury. Plant response ratings, summarized in Table C, are based on a 0 to 100 scale where 0 is no effect and 100 is complete control. A dash (-) response means no test result.

[2] = tested on: green foxtail; test: Test C postemergence; type: in vivo, Setaria viridis; conditions: Postemergence, 1000 g ai/ha, 10 days, visual 0 to 100 scale (0 no effect, 100 complete control)
Description: as §1

[3] = tested on: green foxtail; test: Test C preemergence; type: in vivo, Setaria viridis; conditions: 0 to 100 scale (0 no effect, 100 complete control); for Plant response rating, Foxtail, Green: Preemergence, visual rating after 10 days
Description: as §1

[4] = tested on: ryegrass, Italian; test: Test C preemergence; type: in vivo, Lolium multiflorum; conditions: 0 to 100 scale (0 no effect, 100 complete control); for Plant response rating, Ryegrass, Italian: Preemergence, visual rating after 10 days
Description: as §1

[5] = tested on: ragweed; test: Test C preemergence; type: in vivo, Ambrosia artemisiifolia; conditions: 0 to 100 scale (0 no effect, 100 complete control); for Plant response rating, Ragweed: Preemergence, visual rating after 10 days
Description: as §1

[6] = tested on: barnyardgrass; test: Test C postemergence; type: in vivo, Echinochloa crusgalli
Description: as §1

[7] = tested on: ragweed; test: Test C postemergence; type: in vivo, Ambrosia artemisiifolia; conditions: 10 days
Description: as §1

[8] = tested on: kochia; test: Test C preemergence; type: in vivo, Bassia scoparia; conditions: 0 to 100 scale (0 no effect, 100 complete control); for Plant response rating, Kochia: Preemergence, visual rating after 10 days
Description: as §1

[9] = tested on: kochia; test: Test C postemergence; type: in vivo, Bassia scoparia; conditions: 10 days
Description: as §1

[10] = tested on: galium; test: Test C postemergence; type: in vivo, Galium aparine; conditions: 10 days
Description: as §1

[11] = tested on: blackgrass; test: Test C postemergence; type: in vivo, Alopecurus myosuroides; conditions: 10 days
Description: as §1

[12] = tested on: pigweed, palmer; test: Test C preemergence; type: in vivo, Amaranthus palmeri; conditions: 0 to 100 scale (0 no effect, 100 complete control); for Plant response rating, Pigweed, Palmer: Preemergence, visual rating after 10 days
Description: as §1

[13] = tested on: pigweed, palmer; test: Test C postemergence; type: in vivo, Amaranthus palmeri; conditions: 10 days
Description: as §1

[14] = tested on: horseweed; test: Test C postemergence; type: in vivo, Erigeron canadensis; conditions: 10 days
Description: as §1

[15] = tested on: ryegrass, Italian; test: Test C postemergence; type: in vivo, Lolium multiflorum; conditions: 10 days
Description: as §1

[16] = tested on: blackgrass; test: Test C preemergence; type: in vivo, Alopecurus myosuroides; conditions: 0 to 100 scale (0 no effect, 100 complete control); for Plant response rating, Blackgrass: Preemergence, visual rating after 10 days
Description: as §1

[17] = tested on: soybean; test: Test C postemergence; type: in vivo, Glycine max; conditions: 10 days
Description: as §1

[18] = tested on: wheat; test: Test C preemergence; type: in vivo, Triticum aestivum; conditions: 0 to 100 scale (0 no effect, 100 complete control)
Description: as §1

[19] = tested on: oat, wild; test: Test C postemergence; type: in vivo, Avena fatua; conditions: 10 days
Description: as §1

[20] = tested on: oat, wild; test: Test C preemergence; type: in vivo, Avena fatua; conditions: 0 to 100 scale (0 no effect, 100 complete control)
Description: as §1

[21] = tested on: soybean; test: Test C preemergence; type: in vivo, Glycine max; conditions: 0 to 100 scale (0 no effect, 100 complete control)
Description: as §1

[22] = tested on: corn; test: Test C preemergence; type: in vivo, Zea mays; conditions: 0 to 100 scale (0 no effect, 100 complete control)
Description: as §1

[23] = tested on: corn; test: Test C postemergence; type: in vivo, Zea mays; conditions: 10 days
Description: as §1

[24] = tested on: wheat; test: Test C postemergence; type: in vivo, Triticum aestivum; conditions: 10 days
Description: as §1

[25] = Postemergence, 1000 g ai/ha, visual 0 to 100 scale (0 no effect, 100 complete control)
[26] = Postemergence, 1000 g ai/ha, 0 to 100 scale, 0 no effect, 100 complete control
[27] = Test C, preemergence, 125 g ai/ha
[28] = 125 g ai/ha, postemergence, 0 to 100 scale, 0 no effect, 100 complete control
[29] = Postemergence, 500 g ai/ha, visual 0 to 100 scale (0 no effect, 100 complete control)
[30] = Preemergence, 500 g ai/ha, visual rating after 10 days

C[C@H]1CN(C(=O)c2cccc(-c3cn(C)cn3)c2)c2cccc(Cl)c2O1 [Compound 293]
Plant response rating, Barnyardgrass ([1]; 1000 g ai/ha): 0
Plant response rating, Foxtail, Green [2]: 0
Plant response rating, Foxtail, Green ([3]; 1000 g ai/ha): 0
Plant response rating, Ryegrass, Italian ([4]; 1000 g ai/ha): 0
Plant response rating, Ragweed ([5]; 1000 g ai/ha): 0
Plant response rating, Barnyardgrass ([6]; Postemergence, 1000 g ai/ha, 10 days, visual 0 to 100 scale (0 no effect, 100 complete control)): 0
Plant response rating, Ragweed [7, 25]: 0
Plant response rating, Kochia ([8]; 1000 g ai/ha): 0
Plant response rating, Kochia [9, 25]: 0
Plant response rating, Galium [10, 25]: 0
Plant response rating, Blackgrass [11, 25]: 0
Plant response rating, Pigweed, Palmer ([12]; 1000 g ai/ha): 10
Plant response rating, Pigweed, Palmer [13, 25]: 10
Plant response rating, Horseweed [14, 25]: 30
Plant response rating, Ryegrass, Italian [15, 25]: 0
Plant response rating, Blackgrass ([16]; 1000 g ai/ha): 0

Cc1cc(-c2cccc(C(=O)N3C[C@H](C)Oc4c(C)cccc43)c2)cnn1 [Compound 209]
Plant response rating, Barnyardgrass ([1]; 1000 g ai/ha): 0
Plant response rating, Foxtail, Green [2]: 0
Plant response rating, Foxtail, Green ([3]; 1000 g ai/ha): 0
Plant response rating, Ryegrass, Italian ([4]; 1000 g ai/ha): 30
Plant response rating, Ragweed ([5]; 1000 g ai/ha): 0
Plant response rating, Barnyardgrass [6, 26]: 0
Plant response rating, Ragweed [7, 25]: 0
Plant response rating, Kochia ([8]; 1000 g ai/ha): 0
Plant response rating, Kochia [9, 25]: 0
Plant response rating, Galium [10, 25]: 40
Plant response rating, Blackgrass [11, 25]: 0
Plant response rating, Pigweed, Palmer ([12]; 1000 g ai/ha): 0
Plant response rating, Pigweed, Palmer [13, 25]: 0
Plant response rating, Horseweed [14, 25]: 20
Plant response rating, Ryegrass, Italian [15, 25]: 0
Plant response rating, Blackgrass ([16]; 1000 g ai/ha): 0

Cc1ccc(-c2cccc(C(=O)N3C[C@H](C)Oc4c(C)cccc43)c2)s1 [Compound 244]
Plant response rating, Barnyardgrass ([1]; 1000 g ai/ha): 50
Plant response rating, Foxtail, Green [2]: 20
Plant response rating, Foxtail, Green ([3]; 1000 g ai/ha): 50
Plant response rating, Ryegrass, Italian ([4]; 1000 g ai/ha): 90
Plant response rating, Ragweed ([5]; 1000 g ai/ha): 50
Plant response rating, Barnyardgrass [6, 26]: 20
Plant response rating, Ragweed [7, 25]: 20
Plant response rating, Kochia ([8]; 1000 g ai/ha): 0
Plant response rating, Kochia [9, 25]: 50
Plant response rating, Galium [10, 25]: 60
Plant response rating, Blackgrass [11, 25]: 20
Plant response rating, Pigweed, Palmer ([12]; 1000 g ai/ha): 0
Plant response rating, Pigweed, Palmer [13, 25]: 60
Plant response rating, Horseweed [14, 25]: 90
Plant response rating, Ryegrass, Italian [15, 25]: 80
Plant response rating, Blackgrass ([16]; 1000 g ai/ha): 0

Cc1cccc2c1O[C@@H](C)CN2C(=O)c1cccc(-n2cnc(N(C)C)n2)c1 [Compound 226]
Plant response rating, Barnyardgrass ([1]; 500 g ai/ha): 90
Barnyardgrass plant response rating [1, 27]: 50
Plant response rating, Soybean [17, 28]: 100
Plant response rating, Soybean [17, 29]: 100
Plant response rating, Foxtail, Green ([3]; 500 g ai/ha): 100
Foxtail, Green plant response rating [3, 27]: 100
Plant response rating, Ryegrass, Italian ([4]; 500 g ai/ha): 70
Ryegrass, Italian plant response rating [4, 27]: 70
Plant response rating, Wheat [18, 30]: 10
Wheat plant response rating [18, 27]: 0
Plant response rating, Oat, Wild [19, 28]: 10
Plant response rating, Oat, Wild [19, 29]: 60
Plant response rating, Oat, Wild [20, 30]: 60
Oat, Wild plant response rating [20, 27]: 40
Plant response rating, Ragweed ([5]; 500 g ai/ha): 20
Ragweed plant response rating [5, 27]: 20
Plant response rating, Barnyardgrass ([6]; 125 g ai/ha, postemergence, 10 days, 0 to 100 scale, 0 no effect, 100 complete control): 50
Plant response rating, Barnyardgrass ([6]; Postemergence, 500 g ai/ha, 10 days, visual 0 to 100 scale (0 no effect, 100 complete control)): 80
Plant response rating, Soybean [21, 30]: 30
Soybean plant response rating [21, 27]: 20
Plant response rating, Corn [22, 30]: 0
Corn plant response rating [22, 27]: 0
Plant response rating, Corn [23, 28]: 20
Plant response rating, Corn [23, 29]: 60
Plant response rating, Wheat [24, 28]: 10
Plant response rating, Wheat [24, 29]: 30
Plant response rating, Ragweed [7, 28]: 30
Plant response rating, Ragweed [7, 29]: 60
Plant response rating, Kochia ([8]; 500 g ai/ha): 90
Kochia plant response rating [8, 27]: 50
Plant response rating, Kochia [9, 28]: 70
Plant response rating, Kochia [9, 29]: 80
Plant response rating, Galium [10, 28]: 80
Plant response rating, Galium [10, 29]: 100
Plant response rating, Blackgrass [11, 28]: 60
Plant response rating, Blackgrass [11, 29]: 90
Plant response rating, Pigweed, Palmer ([12]; 500 g ai/ha): 90
Pigweed, Palmer plant response rating [12, 27]: 50
Plant response rating, Pigweed, Palmer [13, 28]: 40
Plant response rating, Pigweed, Palmer [13, 29]: 80
Plant response rating, Horseweed [14, 28]: 10
Plant response rating, Horseweed [14, 29]: 30
Plant response rating, Ryegrass, Italian [15, 28]: 50
Plant response rating, Ryegrass, Italian [15, 29]: 90
Plant response rating, Blackgrass ([16]; 500 g ai/ha): 60
Blackgrass plant response rating [16, 27]: 30
